Measurements: US20250049968A1, “THERAPEUTIC AND IMAGING AGENTS FOR TARGETING MYOCARDIAL TISSUE” (The Board of Regents of the University of Oklahoma, priority 2023, published 2025)

Experiments:
[1] = clinical PK profile; cited from earlier work
MI hearts = assay: Whole-body PET imaging of ^18F-OM for detection of MI in mice; assay type: in vivo; details: for cardiac uptake in MI hearts compared to sham/normal hearts, PET: occluded left anterior descending coronary artery model
Description: Approximately 80 uCi of ^18F-OM was injected and images were acquired after 4 h. […] In another non-limiting embodiment of the present disclosure, the OM or OM-liposomes can be labeled with ^18F radionuclide for PET imaging of myocardial infarction as an infarct-avid radiotracer. Unlike radiotracers for perfusion imaging, infarct-avid agents are not taken up by normal myocardium and only accumulate at the site of acute infarct. Therefore, infarct radiotracers produce images with less background and improved signal-to-noise ratio. Currently, no infarct-avid radiotracer is available for clinical PET imaging of infarct tissue. […] After successful labeling, we investigated ^18F-OM for detection of MI in a mouse model of occluded anterior descending branch of the left coronary artery. After imaging, the mice were euthanized to collect various organs for counting of tissue-associated radioactivity.

[2] = approx. 80 uCi, images after 4 h, FIG. 6

SMILES	mean apparent terminal elimination half-life (t1/2) [1]	accumulation in sham hearts, PET (MI hearts; FIG. 7)	background signal from accumulation in liver and lung tissue (MI hearts; PET, mice)	detection of surgical MI, target/non-target ratio (MI hearts; PET, mice, FIG. 6)	accumulation in hearts of MI mice, whole-body PET (MI hearts; [2])	accumulation in normal hearts of control mice, whole-body PET (MI hearts; [2])	cardiac uptake in MI hearts compared to sham/normal hearts, PET (MI hearts; FIG. 7)	cardiac uptake in MI hearts compared to sham/normal hearts, PET (MI hearts; FIG. 7, listed as [18F]-OMA)
COC(=O)N1CCN(Cc2cccc(NC(=O)Nc3ccc(C)nc3)c2F)CC1 [OM, omecamtiv mecarbil]	18.5 h	–	–	–	–	–	–	–
COC(=O)N1CCN(Cc2cccc(NC(=O)Nc3ccc(C)nc3)c2OCCF)CC1 [^18F-OM, Methyl 4-(2-(2-fluoroethoxy)-3-(3-(6-methylpyridin-3-yl)ureido)benzyl)piperazine-1-carboxylate]	–	accumulated significant	lack of background signal	high target/non-target ratio	high accumulation	no visible accumulation	significantly more pronounced	distinctly high uptake
